Measurements published in PubChem BioAssay AID2060326 (Molecular Pharmacology Branch, DTP, NCI, 2025).

Test system: MDA-MB-468 multi-cell spheroids, viability
Assay: Anticancer human tumor MDA-MB-468 cell line growth inhibition [IpAb];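 also: spheroids exposed to agents for seven days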;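 as to viability, T/C: 100% = DMSO vehicle control viability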
Conditions: for IC50: curve of first compound; for viability, T/C: stronger effect = lower value
From the text: Combinatorial screen of targeted agents with ipatasertib and abemaciclib in multi-cell type tumor spheroids
A high-throughput screen of multi-cell type tumor spheroids was designed to identify active combinations of targeted small molecules and ipatasertib or abemaciclib. Complex spheroids include a stromal component modeled by human endothelial cells (HUVEC) and fibroblasts modeled by human mesenchymal stem cells (MSCs). The concentration ranges selected for each drug and investigational agent were based upon clinically achievable concentrations if the clinical Cmax of the agent was known.
Compounds. The drugs and investigational agents: ipatasertib (NSC767898), abemaciclib(NSC768073), selumetinib (NSC741078), trametinib (758246), adavosertib (NSC754352), everolimus (NSC733504), sapanisertib (NSC764658), vemurafenib (NSC761431), venetoclax (NSC766270), copanlisib (NSC809693), apelisib (NSC765974), palbociblib (NSC758247), vemurafenib (NSC761431), dabrafenib (NSC764134), ravoxertinib (NSC781343), BMS-387032 (NSC767048), sotorasib (NSC818433), talazoparib (NSC767125) and afursertib (NSC778305), were obtained from the National Cancer Institute (NCI) Developmental Therapeutics Program Chemical Repository. The FDA-approved anticancer drug set is available from the NCI Developmental Therapeutics Program. […] The stock solutions were prepared in dimethyl sulfoxide (DMSO, Sigma-Aldrich, St. Louis, MO, cat. D2650) at 800-fold the tested concentration and stored at -70 degrees C prior to their use. All drugs and investigational agents were tested over a range starting from a high concentration at or near the clinical Cmax and decreasing in half-log increments. If the clinical Cmax for an agent had not been determined, the highest concentration tested was 10 microM.
NCI60 Cell Culture. NCI60 cell lines were obtained from the NCI Developmental Therapeutics Program Tumor Repository. For each lot of cells, the Repository performed Applied Biosystems AmpFLSTR Identifiler testing with PCR amplification to confirm consistency with the published Identifier STR profile for each cell line. Cells were kept in continuous culture for no more than 20 passages. The optimal seeding densities for each of the cell lines at each time point assessed were determined prior to performing the concentration response studies. Briefly, the NCI60 human tumor lines were grown as monolayers in RPMI 1640 medium supplemented with 10% FBS and 2 mmol/L L-glutamine.
An additional 9 lines were from the NCI60 cell line panel including MDA-MB-231 breast carcinoma, MDA-MB-468 breast carcinoma, MCF7 breast carcinoma, Hs578T breast carcinoma, MALME-3M melanoma, SK-MEL-2 melanoma, SK-OV-3 ovarian carcinoma, DU-145 prostate carcinoma, PC-3 prostate carcinoma, all cell lines along with major genetic alterations are listed on Table 2. Pooled donor human umbilical vein endothelial cells (HUVEC, Lonza, cat. CC-2519) and human mesenchymal stem cells (hMSC, Lonza, cat. PT-2501) were purchased from Lonza (Walkersville, MD).
PDMR cell lines were grown in complete medium (DC medium): Dulbecco's modified Eagle's medium (DMEM)/F12 supplemented with 5% fetal bovine serum (FBS), 2 mM L-glutamine, 100 U/mL penicillin and 100 µg/ml streptomycin, 0.4 µg/ml hydrocortisone, 10 ng/ml epidermal growth factor (EGF) recombinant human protein, 24 µg/mL adenine, and 0.1 mg/mL primocin. During culture from frozen stock vials, PDMR cells were cultured in the same medium containing 10 µM Y-27632 (see Table 3). The PDCs were cultured in complete DMEM/F12 media without 10 microM Y-27632 dihydrochloride for at least two passages prior to the screen. The pooled donor HUVEC and hMSC were cultured in endothelial cell growth medium 2 (PromoCell, Heidelberg, Germany, cat. C-22011) and mesenchymal stem cell growth medium 2 (PromoCell, cat. C-28009), respectively. For all experiments, HUVEC and hMSC were used at passages </=5.
[…]

[1] = second compound 0.1 µM, first compound 0.0316 µM
[2] = second compound 0.1 µM, first compound 0.1 µM
[3] = second compound 0.1 µM, first compound 0.316 µM
[4] = second compound 0.1 µM, first compound 1 µM
[5] = second compound 0.1 µM, first compound 3.16 µM
[6] = second compound 0.1 µM, first compound 10 µM
[7] = second compound 0.316 µM, first compound 0.0316 µM
[8] = second compound 0.316 µM, first compound 0.1 µM
[9] = second compound 0.316 µM, first compound 0.316 µM
[10] = second compound 0.316 µM, first compound 1 µM
[11] = second compound 0.316 µM, first compound 3.16 µM
[12] = second compound 0.316 µM, first compound 10 µM
[13] = second compound 1 µM, first compound 0.0316 µM
[14] = second compound 1 µM, first compound 0.1 µM
[15] = second compound 1 µM, first compound 0.316 µM
[16] = second compound 1 µM, first compound 1 µM
[17] = second compound 1 µM, first compound 3.16 µM
[18] = second compound 1 µM, first compound 10 µM
[19] = second compound 3.16 µM, first compound 0.0316 µM
[20] = second compound 3.16 µM, first compound 0.1 µM
[21] = second compound 3.16 µM, first compound 0.316 µM
[22] = second compound 3.16 µM, first compound 1 µM
[23] = second compound 3.16 µM, first compound 3.16 µM
[24] = second compound 3.16 µM, first compound 10 µM
[25] = second compound 10 µM, first compound 0.0316 µM
[26] = second compound 10 µM, first compound 0.1 µM
[27] = second compound 10 µM, first compound 0.316 µM
[28] = second compound 10 µM, first compound 1 µM
[29] = second compound 10 µM, first compound 3.16 µM
[30] = second compound 10 µM, first compound 10 µM

Structure (SMILES)	IC50 (second compound 0.1 µM) [nM]	IC50 (second compound 0.316 µM) [nM]	IC50 (second compound 1 µM) [nM]	IC50 (second compound 3.16 µM) [nM]	IC50 (second compound 10 µM) [nM]	viability, T/C [1] [%]	viability, T/C [2] [%]	viability, T/C [3] [%]	viability, T/C [4] [%]	viability, T/C [5] [%]	viability, T/C [6] [%]	viability, T/C [7] [%]	viability, T/C [8] [%]	viability, T/C [9] [%]	viability, T/C [13] [%]	viability, T/C [14] [%]	viability, T/C [19] [%]	viability, T/C [20] [%]	viability, T/C [25] [%]	viability, T/C [26] [%]	also measured
C=CCn1c(=O)c2cnc(Nc3ccc(N4CCN(C)CC4)cc3)nc2n1-c1cccc(C(C)(C)O)n1 + CC(C)NCC(C(=O)N1CCN(c2ncnc3c2C(C)CC3O)CC1)c1ccc(Cl)cc1	383	212	60.2	< 31.6	< 31.6	101	89.3	59.5	5.21	3.03	2.74	78.6	63.7	42.6	59.4	40.8	32.1	27.2	17.8	14	viability, T/C [10]: 2.96%; viability, T/C [11]: 3.13%; viability, T/C [12]: 2.21%; viability, T/C [15]: 25.7%; viability, T/C [16]: 2.27%; viability, T/C [17]: 2.93%; viability, T/C [18]: 1.68%; viability, T/C [21]: 15.7%; viability, T/C [22]: 1.82%; viability, T/C [23]: 3.18%; viability, T/C [24]: 1.47%; viability, T/C [27]: 9.24%; viability, T/C [28]: 1.81%; viability, T/C [29]: 2.55%; viability, T/C [30]: 1.3%
CC(C)n1nc(-c2ccc3oc(N)nc3c2)c2c(N)ncnc21 + CC(C)NCC(C(=O)N1CCN(c2ncnc3c2C(C)CC3O)CC1)c1ccc(Cl)cc1	5.15	2.36	< 0.316	< 0.316	< 0.316	15.8	7.82	–	–	–	–	9.26	5.3	–	5.17	3.13	2.41	1.21	0.6	0.38	viability, T/C (second compound 0.1 µM, first compound 0.000316 µM): 76.6%; viability, T/C (second compound 0.1 µM, first compound 0.001 µM): 72.1%; viability, T/C (second compound 0.1 µM, first compound 0.00316 µM): 58.3%; viability, T/C (second compound 0.1 µM, first compound 0.01 µM): 38.7%; viability, T/C (second compound 0.316 µM, first compound 0.000316 µM): 59%; viability, T/C (second compound 0.316 µM, first compound 0.001 µM): 54.5%; viability, T/C (second compound 0.316 µM, first compound 0.00316 µM): 48.6%; viability, T/C (second compound 0.316 µM, first compound 0.01 µM): 23.4%; viability, T/C (second compound 1 µM, first compound 0.000316 µM): 47.6%; viability, T/C (second compound 1 µM, first compound 0.001 µM): 41%; viability, T/C (second compound 1 µM, first compound 0.00316 µM): 31.1%; viability, T/C (second compound 1 µM, first compound 0.01 µM): 11.3%; viability, T/C (second compound 3.16 µM, first compound 0.000316 µM): 31.4%; viability, T/C (second compound 3.16 µM, first compound 0.001 µM): 25.4%; viability, T/C (second compound 3.16 µM, first compound 0.00316 µM): 16.8%; viability, T/C (second compound 3.16 µM, first compound 0.01 µM): 5.94%; viability, T/C (second compound 10 µM, first compound 0.000316 µM): 15.7%; viability, T/C (second compound 10 µM, first compound 0.001 µM): 14.3%; viability, T/C (second compound 10 µM, first compound 0.00316 µM): 7.69%; viability, T/C (second compound 10 µM, first compound 0.01 µM): 3.03%
CC1(C)CCC(CN2CCN(c3ccc(C(=O)NS(=O)(=O)c4ccc(NCC5CCOCC5)c([N+](=O)[O-])c4)c(Oc4cnc5[nH]ccc5c4)c3)CC2)=C(c2ccc(Cl)cc2)C1 + CC(C)NCC(C(=O)N1CCN(c2ncnc3c2C(C)CC3O)CC1)c1ccc(Cl)cc1	4760	3030	1380	< 31.6	< 31.6	109	89.5	98.3	94.6	71.3	11.3	69.8	72.2	82.4	56.9	63.8	34.4	37.7	17.4	18.9	viability, T/C [10]: 69.5%; viability, T/C [11]: 49.3%; viability, T/C [12]: 7.93%; viability, T/C [15]: 55%; viability, T/C [16]: 56.6%; viability, T/C [17]: 34.1%; viability, T/C [18]: 5.02%; viability, T/C [21]: 38.5%; viability, T/C [22]: 36.4%; viability, T/C [23]: 26.1%; viability, T/C [24]: 2.19%; viability, T/C [27]: 17.9%; viability, T/C [28]: 19.5%; viability, T/C [29]: 9.97%; viability, T/C [30]: 0.99%
CCCS(=O)(=O)Nc1ccc(F)c(C(=O)c2c[nH]c3ncc(-c4ccc(Cl)cc4)cc23)c1F + CC(C)NCC(C(=O)N1CCN(c2ncnc3c2C(C)CC3O)CC1)c1ccc(Cl)cc1	> 10000	9960	498	< 31.6	< 31.6	86.3	87.3	98.5	98	71.7	50.1	62.2	60.7	62.5	58.4	53.6	35.7	34.1	17.3	18.3	viability, T/C [10]: 74.8%; viability, T/C [11]: 53.3%; viability, T/C [12]: 39.3%; viability, T/C [15]: 52.6%; viability, T/C [16]: 46%; viability, T/C [17]: 40.1%; viability, T/C [18]: 27.8%; viability, T/C [21]: 29.4%; viability, T/C [22]: 31.3%; viability, T/C [23]: 30.1%; viability, T/C [24]: 18.6%; viability, T/C [27]: 18.9%; viability, T/C [28]: 16.9%; viability, T/C [29]: 13.7%; viability, T/C [30]: 2.03%
